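Cells were grown in 96-well plates and exposed to each compound for 48 hours at five concentrations; endpoints were interpolated linearly between bracketing concentrations, or set to the highest concentration if not reached. At the GI50, growth is halved.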 The source made the active and inactive calls. No stated cut-off is given here; in the data, active = GI50 up to about 1.1 µM and inactive = higher.
Assays:
Assay in all cases: inhibition of tumour cell growth, NCI panel, 48 h
HOP-62 = tested on: HOP-62
RXF 393 = tested on: RXF 393
OVCAR-8 = tested on: OVCAR-8
HT-29 = tested on: HT-29
MDA-MB-231 = tested on: MDA-MB-231
KM12 = tested on: KM12
SK-MEL-5 = tested on: SK-MEL-5
HL-60 = tested on: HL-60
SK-MEL-2 = tested on: SK-MEL-2
OVCAR-4 = tested on: OVCAR-4
OVCAR-3 = tested on: OVCAR-3
K562 = tested on: K562
SF-539 = tested on: SF-539
DU-145 = tested on: DU-145
NCI-H460 = tested on: NCI-H460
SN12C = tested on: SN12C
SK-MEL-28 = tested on: SK-MEL-28
IGROV-1 = tested on: IGROV-1
SK-OV-3 = tested on: SK-OV-3
SNB-75 = tested on: SNB-75
NCI/ADR-RES = tested on: NCI/ADR-RES
MCF7 = tested on: MCF7
U-251 = tested on: U-251
UACC-62 = tested on: UACC-62
T47D = tested on: T47D
OVCAR-5 = tested on: OVCAR-5
CCRF-CEM = tested on: CCRF-CEM
NCI-H23 = tested on: NCI-H23
EKVX = tested on: EKVX
PC-3 = tested on: PC-3
A549 = tested on: A549
HCT-116 = tested on: HCT-116
NCI-H522 = tested on: NCI-H522
HOP-92 = tested on: HOP-92
TK-10 = tested on: TK-10
COLO 205 = tested on: COLO 205
MDA-N = tested on: MDA-N
HCT-15 = tested on: HCT-15
ACHN = tested on: ACHN
LOX IMVI = tested on: LOX IMVI
A498 = tested on: A498
Hs-578T = tested on: Hs-578T
MDA-MB-435 = tested on: MDA-MB-435
M14 = tested on: M14
SR = tested on: SR
UACC-257 = tested on: UACC-257
SF-268 = tested on: SF-268
NCI-H226 = tested on: NCI-H226
MOLT-4 = tested on: MOLT-4
SNB-19 = tested on: SNB-19
CAKI-1 = tested on: CAKI-1
786-0 = tested on: 786-0
UO-31 = tested on: UO-31
Malme-3M = tested on: Malme-3M
RPMI-8226 = tested on: RPMI-8226
SF-295 = tested on: SF-295
SW-620 = tested on: SW-620
HCC 2998 = tested on: HCC 2998

CCN1C(=O)/C(=C\Nc2ccccc2)S/C1=N/Nc1ncc(CC(=O)Nc2ccccc2C)s1
GI50 (HOP-62): > 100 µM (inactive)
GI50 (RXF 393): > 100 µM (inactive)
GI50 (OVCAR-8): 71.6 µM (inactive)
GI50 (HT-29): 33.7 µM (inactive)
GI50 (MDA-MB-231): > 100 µM (inactive)
GI50 (KM12): 74 µM (inactive)
GI50 (SK-MEL-5): 46.5 µM (inactive)
GI50 (HL-60): 42.6 µM (inactive)
GI50 (SK-MEL-2): > 100 µM (inactive)
GI50 (OVCAR-4): > 100 µM (inactive)
GI50 (OVCAR-3): 43.7 µM (inactive)
GI50 (K562): 43.6 µM (inactive)
GI50 (SF-539): > 100 µM (inactive)
GI50 (DU-145): > 100 µM (inactive)
GI50 (NCI-H460): 29.1 µM (inactive)
GI50 (SN12C): > 100 µM (inactive)
GI50 (SK-MEL-28): > 100 µM (inactive)
GI50 (IGROV-1): > 100 µM (inactive)
GI50 (SK-OV-3): > 100 µM (inactive)
GI50 (SNB-75): 28.4 µM (inactive)
GI50 (NCI/ADR-RES): 45 µM (inactive)
GI50 (MCF7): 82.2 µM (inactive)
GI50 (U-251): 60.5 µM (inactive)
GI50 (UACC-62): 83.6 µM (inactive)
GI50 (T47D): 45.3 µM (inactive)
GI50 (OVCAR-5): > 100 µM (inactive)
GI50 (CCRF-CEM): 82.6 µM (inactive)
GI50 (NCI-H23): > 100 µM (inactive)
GI50 (EKVX): > 100 µM (inactive)
GI50 (PC-3): 44.9 µM (inactive)
GI50 (A549): 58.2 µM (inactive)
GI50 (HCT-116): > 100 µM (inactive)
GI50 (NCI-H522): 63.8 µM (inactive)
GI50 (HOP-92): 67.6 µM (inactive)
GI50 (TK-10): 75.5 µM (inactive)
GI50 (COLO 205): > 100 µM (inactive)
GI50 (MDA-N): > 100 µM (inactive)
GI50 (HCT-15): > 100 µM
GI50 (ACHN): 83.8 µM (inactive)
GI50 (LOX IMVI): > 100 µM (inactive)
GI50 (A498): > 100 µM (inactive)
GI50 (Hs-578T): 45.6 µM (inactive)
GI50 (MDA-MB-435): > 100 µM (inactive)
GI50 (M14): > 100 µM (inactive)
GI50 (SR): 38.2 µM (inactive)
GI50 (UACC-257): > 100 µM (inactive)
GI50 (SF-268): 88.5 µM (inactive)
GI50 (NCI-H226): 11.2 µM (inactive)
GI50 (MOLT-4): 51.5 µM (inactive)
GI50 (SNB-19): > 100 µM (inactive)
GI50 (CAKI-1): > 100 µM (inactive)
GI50 (786-0): > 100 µM (inactive)
GI50 (UO-31): 38.7 µM (inactive)
GI50 (Malme-3M): > 100 µM (inactive)
GI50 (RPMI-8226): 36.5 µM (inactive)
GI50 (SF-295): 64.7 µM (inactive)
GI50 (SW-620): > 100 µM (inactive)
GI50 (HCC 2998): 91 µM (inactive)

C=CCC1NCCC2=C1C(S(=O)(=O)c1ccc(C)cc1)c1ccccc12 (stereo unspecified)
GI50 (HOP-62): 14.5 µM (inactive)
GI50 (RXF 393): 5.66 µM (inactive)
GI50 (OVCAR-8): 14.3 µM (inactive)
GI50 (HT-29): 16 µM (inactive)
GI50 (MDA-MB-231): 12.1 µM (inactive)
GI50 (KM12): 9.46 µM (inactive)
GI50 (SK-MEL-5): 14.3 µM (inactive)
GI50 (SK-MEL-2): 13.5 µM (inactive)
GI50 (OVCAR-4): 12.1 µM (inactive)
GI50 (OVCAR-3): 12.5 µM (inactive)
GI50 (K562): 5.62 µM (inactive)
GI50 (DU-145): 11.9 µM (inactive)
GI50 (NCI-H460): 11.7 µM (inactive)
GI50 (SN12C): 14.4 µM (inactive)
GI50 (SK-MEL-28): 12.4 µM (inactive)
GI50 (IGROV-1): 8.11 µM (inactive)
GI50 (SK-OV-3): 16.6 µM (inactive)
GI50 (SNB-75): 5.64 µM (inactive)
GI50 (NCI/ADR-RES): 12.6 µM (inactive)
GI50 (MCF7): 7.13 µM (inactive)
GI50 (U-251): 11.5 µM (inactive)
GI50 (UACC-62): 11.7 µM (inactive)
GI50 (T47D): 10.4 µM (inactive)
GI50 (OVCAR-5): 18.1 µM (inactive)
GI50 (CCRF-CEM): 7.96 µM (inactive)
GI50 (NCI-H23): 18 µM (inactive)
GI50 (EKVX): 18 µM (inactive)
GI50 (PC-3): 10.4 µM (inactive)
GI50 (A549): 15.1 µM (inactive)
GI50 (HCT-116): 11.1 µM (inactive)
GI50 (NCI-H522): 10.1 µM (inactive)
GI50 (HOP-92): 9.95 µM (inactive)
GI50 (TK-10): 16.4 µM (inactive)
GI50 (COLO 205): 2 µM (inactive)
GI50 (MDA-N): 6.9 µM (inactive)
GI50 (HCT-15): 11.9 µM
GI50 (ACHN): 7.16 µM (inactive)
GI50 (LOX IMVI): 8.91 µM (inactive)
GI50 (A498): 19 µM (inactive)
GI50 (Hs-578T): 13.7 µM (inactive)
GI50 (MDA-MB-435): 5.47 µM (inactive)
GI50 (M14): 11.8 µM (inactive)
GI50 (SR): 3.64 µM (inactive)
GI50 (UACC-257): 20.2 µM (inactive)
GI50 (SF-268): 14.9 µM (inactive)
GI50 (NCI-H226): 16.8 µM (inactive)
GI50 (MOLT-4): 6.56 µM (inactive)
GI50 (SNB-19): 16.5 µM (inactive)
GI50 (CAKI-1): 6.92 µM (inactive)
GI50 (786-0): 12.9 µM (inactive)
GI50 (UO-31): 7.67 µM (inactive)
GI50 (Malme-3M): 11.2 µM (inactive)
GI50 (RPMI-8226): 5.55 µM (inactive)
GI50 (SF-295): 13.7 µM (inactive)
GI50 (SW-620): 14.2 µM (inactive)
GI50 (HCC 2998): 1.85 µM (inactive)

CCC(=O)N(c1ccccc1)C(C)CN1CCC(O)(c2cccc(C(F)(F)F)c2)CC1 (stereo unspecified)
GI50 (HOP-62): 21.5 µM (inactive)
GI50 (RXF 393): > 100 µM (inactive)
GI50 (OVCAR-8): 38.1 µM (inactive)
GI50 (HT-29): 13 µM (inactive)
GI50 (MDA-MB-231): 21.6 µM (inactive)
GI50 (KM12): 35.2 µM (inactive)
GI50 (SK-MEL-5): 20.6 µM (inactive)
GI50 (HL-60): 17.8 µM (inactive)
GI50 (SK-MEL-2): 20.9 µM (inactive)
GI50 (OVCAR-4): 33.3 µM (inactive)
GI50 (OVCAR-3): 45.6 µM (inactive)
GI50 (K562): 20.9 µM (inactive)
GI50 (SF-539): 23.2 µM (inactive)
GI50 (SN12C): 37.9 µM (inactive)
GI50 (SK-MEL-28): 23.1 µM (inactive)
GI50 (IGROV-1): 59.2 µM (inactive)
GI50 (SK-OV-3): 52.6 µM (inactive)
GI50 (SNB-75): 32.8 µM (inactive)
GI50 (NCI/ADR-RES): 19.5 µM (inactive)
GI50 (U-251): 37.2 µM (inactive)
GI50 (UACC-62): 22.1 µM (inactive)
GI50 (T47D): 33.7 µM (inactive)
GI50 (OVCAR-5): 22.8 µM (inactive)
GI50 (CCRF-CEM): 19.9 µM (inactive)
GI50 (NCI-H23): 21.4 µM (inactive)
GI50 (EKVX): 31.8 µM (inactive)
GI50 (PC-3): 19.3 µM (inactive)
GI50 (A549): 39 µM (inactive)
GI50 (HCT-116): 17.3 µM (inactive)
GI50 (NCI-H522): 20.2 µM (inactive)
GI50 (HOP-92): 22.8 µM (inactive)
GI50 (TK-10): 25.1 µM (inactive)
GI50 (COLO 205): 14.7 µM (inactive)
GI50 (MDA-N): 19.5 µM (inactive)
GI50 (HCT-15): 30.6 µM
GI50 (ACHN): 36.2 µM (inactive)
GI50 (LOX IMVI): 18.9 µM (inactive)
GI50 (A498): 26.8 µM (inactive)
GI50 (Hs-578T): 34.8 µM (inactive)
GI50 (MDA-MB-435): 20.2 µM (inactive)
GI50 (M14): 16.1 µM (inactive)
GI50 (UACC-257): 17.5 µM (inactive)
GI50 (NCI-H226): 30.2 µM (inactive)
GI50 (MOLT-4): 17.9 µM (inactive)
GI50 (SNB-19): > 100 µM (inactive)
GI50 (CAKI-1): > 100 µM (inactive)
GI50 (786-0): 18.5 µM (inactive)
GI50 (UO-31): 28.8 µM (inactive)
GI50 (RPMI-8226): 18.7 µM (inactive)
GI50 (SF-295): 35.4 µM (inactive)
GI50 (SW-620): > 100 µM (inactive)
GI50 (HCC 2998): 26.5 µM (inactive)
